The record followed here is patent publication US9932300B2, “N,N′-diarylurea compounds and N,N′-diarylthiourea compounds as inhibitors of translation initiation” (President and Fellows of Harvard College, priority 2009, dated 2018).

Assay [1] has as its system eIF2-GTP-Met-tRNAi ternary complex. In words: Ternary complex assay (dual luciferase, firefly/renilla ratio) in stable KLN-tTA/pBISA-DL(ATF-4) cells; HTS and hit confirmation. Format: cell-based, mouse. Particulars: anti-cancer agents at 20 μM, ternary complex assay.
The test system is the same in assay [2]. The assay can be described thus: Ternary complex / ATF-4 dual luciferase assay in human cancer cell lines co-transfected with tTA and pBISA-DL(ATF-4) (CRL-2351, PC-3, CRL-2813). The settings on record: CRL-2351 cell line. It is filed as cell-based. Here is the method: FIGS. 8A-8D depict that N,N′-diarylureas reduce the availability of the eIF2-GTP-Met-tRNAi ternary complex in human cancer cells. A-C) PC-3, CR-L2351, and CRL-2813 human cancer cell lines were co-transfected with pBISA-DL^(ATF-4) and ptTA plasmids. One day post-transfection, the cells were treated with the indicated concentrations of N,N′-diarylureas. Firefly/renilla ratio was determined by DLR assay 8 hours after treatment. D) PC-3, CR-L2351, and CRL-2813 human cancer cell lines were treated with the indicated concentrations of N,N′-diarylureas four 8 hours, and expression of endogenous CHOP mRNA was determined by real-time PCR.
For example, reducing amount of the ternary complex increases translation of ATF-4, which results in elevated expression of CHOP mRNA and protein. Therefore, expression of endogenous CHOP mRNA and CHOP protein in KLN-tTA/pBISA-DL^(ATF-4) cells were utilized as secondary assays to validate N,N′-diarylurea compounds as modifiers of the eIF2⋅GTP⋅Met-tRNAi ternary complex. […] To rule out the possibility that the activity of N,N′-diarylurea compounds was confined to a single cell type, the effects of these compounds on the ternary complex assay and the expression of CHOP mRNA was assayed in CRL-2351, PC-3, CRL-2813 human breast, prostate, and melanoma cancer cell lines respectively. For the reporter gene assay, the three human cell lines were co-transfected with tTA expression vector and the pBISA-DL^(ATF-4) dual luciferase expression vector shown in FIG. 6. […] The expression of CHOP mRNA was assayed by real time PCR in the same cell lines treated with 5 or 20 μM of each compound. […]
Stable and transient transfection: Cells were seeded at the density of 10^5 in 60-mm (stable transfection) or 10^4 cells per well of 96-well plate (transient transfection) plates and transfected one day later using the Qiagen Transfectamine transfection kit. For selection of stable cell lines, transfected cells were transferred to 100-mm plates and selected with appropriate antibiotics.
Dual luciferase assay: Cells or minced tumors expressing firefly and renilla luciferases were lysed and the extracts assayed with a glow type dual luciferase assay kit, per manufacturer's instruction (Promega Inc., Madison, Wis.).

For assay [3] the test system is unchanged. In words: Ternary complex assay (dual luciferase, firefly/renilla ratio) in stable KLN-tTA/pBISA-DL(ATF-4) cells; HTS and hit confirmation. It is filed as cell-based, mouse. Set-up: Activity 10 uM / Activity 2.5 uM / Activity 5 uM: unit not given here. Particulars: for Activity 2.5 uM: compound at 2.5 uM; for Activity 2.5 uM / Activity 10 uM / Activity 5 uM: confirmed hits of the screen (Table 5); for Activity 10 uM: compound at 10 uM; for Activity 5 uM: compound at 5 uM; for Effect on firefly/renilla luciferase ratio: KLN-tTA/pBISA-DL(ATF-4) colonies, assay validation.

On to `N=C(N)NC(=O)c1nc(Cl)c(N)nc1N` [Amiloride], for which the “Relative F-luc/R-luc Ratio (+/− SEM)” value in assay [1] is 1.1 + 0.3.
Still for that read-out and setting: in the case of `Clc1ccccc1C(c1ccccc1)(c1ccccc1)n1ccnc1` [CLT, clotrimazole, reference compound] it was 6 + 1.1.
Turning to `O=C(Nc1ccc(Cl)c(Cl)c1)Nc1ccc(Cl)c(Cl)c1` [Compound 1, 1,3-bis(3,4-dichlorophenyl)urea], in assay [2], the “ATF-4 Cmax (concentration corresponding to the maximal activity)” value (“ATF-4 Cmax” below) amounted to 5 µM.
With `O=C(Nc1ccc(Cl)c(C(F)(F)F)c1)Nc1ccc(Cl)c(C(F)(F)F)c1` [Compound 2, 1,3-bis[4-chloro-3-(trifluoromethyl)phenyl]urea], the “ATF-4 Cmax” value in assay [2] amounted to 2.4 µM.
Same read-out and setting: in the case of `O=C(Nc1cc(C(F)(F)F)cc(C(F)(F)F)c1)Nc1cc(C(F)(F)F)cc(C(F)(F)F)c1` [Compound 3, 1,3-bis[3,5-bis(trifluoromethyl)phenyl]urea] it was 2.5 µM.
The same measure, in the same setting: in the case of `Cc1ccc(NC(=O)Nc2ccc(Cl)c(Cl)c2)cc1O` [Compound 4, 3-(3,4-dichlorophenyl)-1-(3-hydroxy-4-methylphenyl)urea] it was 20 µM; in that of `Cc1ccc(NC(=O)Nc2ccc(Cl)c(C(F)(F)F)c2)cc1O` [Compound 5, 3-[4-chloro-3-(trifluoromethyl)phenyl]-1-(3-hydroxy-4-methylphenyl)urea], 10 µM.
The same measure, in the same setting: under `Cc1ccc(NC(=O)Nc2cc(C(F)(F)F)cc(C(F)(F)F)c2)cc1O` [Compound 6, 3-[3,5-bis(trifluoromethyl)phenyl]-1-(3-hydroxy-4-methylphenyl)urea] stands 5 µM; under `COc1cc(NC(=O)Nc2ccc(Cl)c(C(F)(F)F)c2)ccc1C` [Compound 8], 10 µM.
On to `COc1cc(NC(=O)Nc2cc(C(F)(F)F)cc(C(F)(F)F)c2)ccc1C` [Compound 9], for which, in assay [2], the “ATF-4 Cmax” value is 20 µM.
On the same count and under the same terms, under `Cc1ccc(NC(=O)Nc2ccc(Cl)c(Cl)c2)cc1OCCN(C)C` [Compound 11, 3-(3,4-dichlorophenyl)-1-{3-[2-(dimethylamino)ethoxy]-4-methylphenyl}urea] stands 20 µM.
With `Cc1ccc(NC(=O)Nc2ccc(Cl)c(C(F)(F)F)c2)cc1OCCN(C)C` [Compound 12, 3-[4-chloro-3-(trifluoromethyl)phenyl]-1-{3-[2-(dimethylamino)ethoxy]-4-methylphenyl}urea], the “ATF-4 Cmax” value in assay [2] worked out at 10 µM.
The same measure, in the same setting: under `Cc1ccc(NC(=O)Nc2cc(C(F)(F)F)cc(C(F)(F)F)c2)cc1OCCN(C)C` [Compound 13, 3-[3,5-bis(trifluoromethyl)phenyl]-1-{3-[2-(dimethylamino)ethoxy]-4-methylphenyl}urea] stands 10 µM.
On to `Cc1ccc(NC(=O)Nc2ccc(Cl)c(Cl)c2)cc1OCCN1CCOCC1` [Compound 15, 3-(3,4-dichlorophenyl)-1-{4-methyl-3-[2-(morpholin-4-yl)ethoxy]phenyl}urea], for which the “ATF-4 Cmax” value in assay [2] came to 10 µM.
On the same count and under the same terms, under `Cc1ccc(NC(=O)Nc2ccc(Cl)c(C(F)(F)F)c2)cc1OCCN1CCOCC1` [Compound 16, 3-[4-chloro-3-(trifluoromethyl)phenyl]-1-{4-methyl-3-[2-(morpholin-4-yl)ethoxy]phenyl}urea] stands 10 µM; under `Cc1ccc(NC(=O)Nc2cc(C(F)(F)F)cc(C(F)(F)F)c2)cc1OCCN1CCOCC1` [Compound 17, 3-[3,5-bis(trifluoromethyl)phenyl]-1-{4-methyl-3-[2-(morpholin-4-yl)ethoxy]phenyl}urea], 10 µM; under `Cc1ccc(NC(=O)Nc2ccc(Cl)c(Cl)c2)cc1OCCN1CCNCC1` [Compound 23, 4-[2-(5-{[(3,4-dichlorophenyl)carbamoyl]amino}-2-methylphenoxy)ethyl]piperazine-1,4-diium dichloride], 10 µM.
Still for that read-out and setting: under `Cc1ccc(NC(=O)Nc2cc(C(F)(F)F)cc(C(F)(F)F)c2)cc1OCCN1CCNCC1` [Compound 25, 4-{2-[5-({[3,5-bis(trifluoromethyl)phenyl]carbamoyl}amino)-2-methylphenoxy]ethyl}piperazine-1,4-diium dichloride] stands 10 µM.
The same measure, in the same setting: in the case of `O=C(Nc1ccc(Cl)c(Cl)c1)Nc1ncccc1O` [Compound 26] it was 40 µM; in that of `O=C(Nc1ccc(Cl)c(C(F)(F)F)c1)Nc1ncccc1O` [Compound 27], 40 µM.
As for `COc1ccc2nc3cccc([N+](=O)[O-])c3c(NCCCO)c2c1` [Compound 673797], in assay [3], the “Activity 2.5 uM” value was 2.54 and the “Activity 10 uM” value stood at 4.7.
In the same order, the values of `Cc1cn(C2OC(CO[Si](C)(C)C(C)(C)C)C(N(C)O[Si](C)(C)C(C)(C)C)C2[Se]c2ccccc2)c(=O)[nH]c1=O` (centres unmarked) [Compound 674469] are 1.37 and 23.82.
In the same order, the values of `Cc1cc(C)n(C(=C(C(Cl)=C(Cl)Cl)[N+](=O)[O-])n2nc(C)cc2C)n1` [Compound 678036] are 0.85 and 12.77.
Regarding `CC(C)[Si]1(C(C)C)OCC2OC(N3C(=O)NC(=O)C[C@@H]3C(O)c3ccccc3)CC2O[Si](C(C)C)(C(C)C)O1` (some centres unmarked) [Compound 680834], in assay [3], the “Activity 2.5 uM” value is 0.76 and the “Activity 10 uM” value was 4.25.
In the same order, the values of `CN1/C(=C/C=C/C=C/C=C2C(=O)c3ccccc3C2=O)C(C)(C)c2ccccc21` [Compound 682512] are 0.57 and 10.02.
On to `c1ccc(-c2ccc(N=NN3CCCC3)cc2)cc1` [Compound 687753], for which, in assay [3], the “Activity 5 uM” value is given as 4.922 and the “Activity 10 uM” value turned out to be 6.931.
Regarding `C=CC(=O)N1C/C(=C\c2ccc(Cl)cc2)C(=O)/C(=C/c2ccc(Cl)cc2)C1` [Compound 687849], in assay [3], the “Activity 2.5 uM” value turned out to be 0.88 and the “Activity 10 uM” value is 12.02.
With `CN(C)c1ccc(/C=C2\CCCCCC2=O)cc1` [Compound 689962], in assay [3], the “Activity 5 uM” value was determined as 4.784 and the “Activity 10 uM” value came out at 7.987.
Consider `Cn1/c(=N\S(=O)(=O)c2ccccc2)n(S(=O)(=O)c2ccccc2)c2ccccc21` [Compound 690404], for which, in assay [3], the “Activity 2.5 uM” value is recorded as 1.46 and the “Activity 10 uM” value amounted to 3.03.
The like results for `COc1cc(/C=C2\CCC(C)/C(=C\c3cc(OC)c(OC)c(OC)c3)C2=O)cc(OC)c1OC` (centres unmarked) [Compound 690734] were, in that order, 0.48 and 10.02.
For `FC(F)(Sc1ccccc1)c1nc2ccccc2o1` [Compound 691255], in assay [3], the “Activity 5 uM” value was 3.963 and the “Activity 10 uM” value is listed as 5.5705.
In the same order, the values of `FC(F)(Sc1ccccn1)c1nc2ccccc2o1` [Compound 691256] are 4.563 and 5.7865.
The like results for `Cn1ccnc1SC(F)(F)c1nc2ccccc2o1` [Compound 691258] were, in that order, 3.891 and 3.904.
In the same order, the values of `O=[N+]([O-])c1cccc(-c2cn3c(n2)Cc2ccccc2C3)c1` [Compound 693037] are 6.794 and 8.088.
With `COc1ccc(N=[N+]([O-])c2ccc(OC)cc2)cc1` [Compound 694092], in assay [3], the “Activity 5 uM” value stood at 4.958 and the “Activity 10 uM” value is 5.898.
With `CO[C@@]12[C@H](COC(N)=O)C3=C(C(=O)C(C)=C(N)C3=O)N1C[C@@H]1N[C@@H]12` [mitomycin, reference compound], the “Effect on firefly/renilla luciferase ratio” value in assay [3] is on record as “no effect”.
On the same count and under the same terms, in the case of `C/C=C(/C)C(=O)O[C@H]1C(C)=C2[C@H]([C@@H]1OC(=O)CCCCCCC)[C@@](C)(OC(C)=O)C[C@H](OC(=O)CCC)[C@@]1(O)[C@H]2OC(=O)[C@@]1(C)O` [thapsigargin, reference compound] it was “increase in the ratio of firefly activity relative to renilla activity”; in that of tunicamycin [reference compound], “increase in the ratio of firefly activity relative to renilla activity”.
